For one assay, the target named is p110 alpha (Homo sapiens (Human), UniProt P42336). Nature of the assay: PI3K isoform inhibition assay, p110 alpha (for alpha/delta selectivity). Conditions: ratio of biochemical IC50 values. Summed up: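 Fluorescence polarization displacement of a fluorescent PIP3 probe from GRP-1 detector by PI3K-formed PIP3; p110α/p85α at 40 ng/mL with 10 μM PIP2 substrate.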

The target of a further assay is p110 delta (Homo sapiens (Human), UniProt O00329). The assay is described as follows: PI3K isoform inhibition assay, p110 delta (fluorescence polarization displacement). The format is biochemical. (Fluorescence polarisation rises when a labelled molecule tumbles more slowly, as on binding a larger partner.)
Chain of p110 delta (O00329 whole entry, canonical isoform): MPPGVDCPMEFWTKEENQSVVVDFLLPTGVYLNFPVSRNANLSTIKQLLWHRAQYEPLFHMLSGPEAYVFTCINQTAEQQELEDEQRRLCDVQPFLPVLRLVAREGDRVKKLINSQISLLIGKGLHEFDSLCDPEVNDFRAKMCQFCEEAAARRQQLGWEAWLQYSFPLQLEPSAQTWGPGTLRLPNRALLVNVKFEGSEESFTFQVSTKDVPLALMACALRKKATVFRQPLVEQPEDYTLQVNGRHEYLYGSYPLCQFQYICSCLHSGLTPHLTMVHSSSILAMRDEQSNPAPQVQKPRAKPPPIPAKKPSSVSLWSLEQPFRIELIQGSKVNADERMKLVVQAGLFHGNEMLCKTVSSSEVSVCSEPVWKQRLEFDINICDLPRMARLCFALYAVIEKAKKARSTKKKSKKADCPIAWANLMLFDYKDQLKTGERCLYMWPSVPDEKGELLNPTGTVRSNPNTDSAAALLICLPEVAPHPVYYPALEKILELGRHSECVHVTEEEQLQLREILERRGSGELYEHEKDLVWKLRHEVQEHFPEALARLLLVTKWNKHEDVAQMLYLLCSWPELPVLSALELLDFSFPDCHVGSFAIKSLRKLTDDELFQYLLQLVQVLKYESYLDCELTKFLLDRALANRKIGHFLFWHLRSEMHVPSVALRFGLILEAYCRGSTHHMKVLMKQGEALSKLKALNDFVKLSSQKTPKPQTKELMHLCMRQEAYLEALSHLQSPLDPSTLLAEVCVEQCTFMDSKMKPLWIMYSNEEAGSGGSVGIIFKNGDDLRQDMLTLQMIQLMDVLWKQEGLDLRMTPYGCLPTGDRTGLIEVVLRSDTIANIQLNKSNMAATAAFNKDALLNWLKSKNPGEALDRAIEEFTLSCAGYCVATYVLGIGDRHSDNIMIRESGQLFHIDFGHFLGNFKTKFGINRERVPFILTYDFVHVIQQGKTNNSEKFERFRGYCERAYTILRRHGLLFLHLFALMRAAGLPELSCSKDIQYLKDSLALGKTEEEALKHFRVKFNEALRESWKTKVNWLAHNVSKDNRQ
Chain of p110 delta (P27986 whole entry partner, canonical isoform): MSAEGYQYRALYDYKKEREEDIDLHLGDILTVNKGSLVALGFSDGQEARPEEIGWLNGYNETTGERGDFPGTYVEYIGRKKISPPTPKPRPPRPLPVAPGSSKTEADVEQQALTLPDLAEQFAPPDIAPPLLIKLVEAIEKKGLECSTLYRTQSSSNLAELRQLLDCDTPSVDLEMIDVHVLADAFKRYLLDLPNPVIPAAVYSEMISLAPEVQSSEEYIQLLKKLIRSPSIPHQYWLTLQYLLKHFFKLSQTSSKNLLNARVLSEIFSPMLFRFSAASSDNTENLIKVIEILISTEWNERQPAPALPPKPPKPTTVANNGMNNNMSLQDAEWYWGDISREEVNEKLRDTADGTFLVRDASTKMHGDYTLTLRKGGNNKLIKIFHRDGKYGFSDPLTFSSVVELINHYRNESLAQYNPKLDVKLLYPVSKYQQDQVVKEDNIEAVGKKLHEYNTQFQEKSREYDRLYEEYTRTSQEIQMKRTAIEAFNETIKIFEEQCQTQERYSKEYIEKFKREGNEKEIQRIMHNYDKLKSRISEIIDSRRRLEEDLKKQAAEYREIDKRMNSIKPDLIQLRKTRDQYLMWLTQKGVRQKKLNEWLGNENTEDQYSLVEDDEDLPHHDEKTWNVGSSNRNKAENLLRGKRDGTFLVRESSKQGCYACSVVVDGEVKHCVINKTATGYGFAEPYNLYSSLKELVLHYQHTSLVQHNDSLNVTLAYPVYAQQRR

Usually IC50 stands for the midpoint of a concentration-inhibition curve. A higher IC50 goes with a need for much substance.

Chain of p110 alpha (P42336 whole entry, canonical isoform): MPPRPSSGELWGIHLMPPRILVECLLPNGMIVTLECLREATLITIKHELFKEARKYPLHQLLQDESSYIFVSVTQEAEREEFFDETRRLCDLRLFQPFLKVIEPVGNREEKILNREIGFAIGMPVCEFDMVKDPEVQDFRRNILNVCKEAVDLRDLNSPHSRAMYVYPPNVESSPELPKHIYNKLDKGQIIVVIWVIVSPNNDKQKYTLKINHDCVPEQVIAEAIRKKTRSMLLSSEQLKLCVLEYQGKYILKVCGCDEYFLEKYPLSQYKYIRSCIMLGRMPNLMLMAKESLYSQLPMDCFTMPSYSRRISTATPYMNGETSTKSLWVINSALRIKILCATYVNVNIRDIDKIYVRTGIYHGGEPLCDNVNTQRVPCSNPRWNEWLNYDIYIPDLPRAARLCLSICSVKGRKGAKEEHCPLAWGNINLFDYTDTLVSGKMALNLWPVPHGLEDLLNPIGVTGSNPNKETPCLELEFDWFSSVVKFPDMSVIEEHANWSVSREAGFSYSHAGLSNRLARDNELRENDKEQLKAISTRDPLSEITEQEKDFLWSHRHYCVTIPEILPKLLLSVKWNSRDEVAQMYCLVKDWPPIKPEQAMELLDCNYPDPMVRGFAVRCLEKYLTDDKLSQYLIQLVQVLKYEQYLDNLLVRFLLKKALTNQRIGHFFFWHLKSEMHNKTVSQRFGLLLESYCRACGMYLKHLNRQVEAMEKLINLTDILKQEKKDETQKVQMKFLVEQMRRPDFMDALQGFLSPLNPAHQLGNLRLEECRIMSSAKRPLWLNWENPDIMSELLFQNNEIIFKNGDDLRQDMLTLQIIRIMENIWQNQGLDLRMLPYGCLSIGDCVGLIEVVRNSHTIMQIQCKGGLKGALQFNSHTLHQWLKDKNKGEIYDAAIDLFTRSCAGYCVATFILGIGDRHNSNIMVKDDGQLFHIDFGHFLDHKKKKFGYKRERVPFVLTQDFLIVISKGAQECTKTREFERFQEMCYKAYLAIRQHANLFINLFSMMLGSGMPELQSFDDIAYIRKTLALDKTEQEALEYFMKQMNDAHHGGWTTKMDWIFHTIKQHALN
Chain of p110 alpha (P27986 whole entry partner, canonical isoform): as the sequence (P27986 whole entry partner, canonical isoform) above

For `Cc1nc(-c2cn3c(n2)-c2cc(C(C)N4CCN(C(C)(C)C)CC4)c(F)cc2OCC3)n(C(C)C)n1` (centres unmarked) [Example 328, 10-[1-(4-tert-butylpiperazin-1-yl)ethyl]-9-fluoro-2-(2-isopropyl-5-methyl-1,2,4-triazol-3-yl)-5,6-dihydroimidazo[1,2-d][1,4]benzoxazepine], the “IC50 p110 alpha/IC50 p110 delta” value on p110 alpha is given as 109. Further, the half-maximal inhibitory concentration (IC50) on p110 delta came to 2.29 nM.
The like results for `Cc1nc(-c2cn3c(n2)-c2cc([C@@H](C)N4CCN(C(C)C)CC4)c(C)cc2OCC3)n(C(C)C)n1` [Example 331, (R)-2-(1-isopropyl-3-methyl-1H-1,2,4-triazol-5-yl)-10-(1-(4-isopropylpiperazin-1-yl)ethyl)-9-methyl-5,6-dihydrobenzo[f]imidazo[1,2-d][1,4]oxazepine] were, in that order, 104 and 0.865 nM.
For the compound `Cc1nc(-c2cn3c(n2)-c2cc([C@H](C)N4CCN(C(C)C)CC4)c(C)cc2OCC3)n(C(C)C)n1` [Example 332, (S)-2-(1-isopropyl-3-methyl-1H-1,2,4-triazol-5-yl)-10-(1-(4-isopropylpiperazin-1-yl)ethyl)-9-methyl-5,6-dihydrobenzo[f]imidazo[1,2-d][1,4]oxazepine], the “IC50 p110 alpha/IC50 p110 delta” value on p110 alpha is 13. Besides, the IC50 at p110 delta was 0.678 nM.
Turning to `CCN(CC)C1CCOC(c2c(-c3ccc4c(c3)OCCn3cc(-c5nc(C)nn5C(C)C)nc3-4)cnn2C)C1` (centres unmarked) [Example 333, N,N-diethyl-2-[4-[2-(2-isopropyl-5-methyl-1,2,4-triazol-3-yl)-5,6-dihydroimidazo[1,2-d][1,4]benzoxazepin-9-yl]-2-methyl-pyrazol-3-yl]tetrahydropyran-4-amine], the “IC50 p110 alpha/IC50 p110 delta” value on p110 alpha turned out to be 27.2. The compound also returned a concentration for half-maximal inhibition (IC50) on p110 delta of 2.37 nM.
The like results for `Cc1nc(-c2cn3c(n2)-c2cc([C@@H](C)N4CCN(CC(C)(C)O)CC4)c(F)cc2OCC3)n(C(C)C)n1` [Example 334, (R)-1-(4-(1-(9-fluoro-2-(1-isopropyl-3-methyl-1H-1,2,4-triazol-5-yl)-5,6-dihydrobenzo[f]imidazo[1,2-d][1,4]oxazepin-10-yl)ethyl)piperizan-1-yl)-2-methylpropan-2-ol] were, in that order, 17.3 and 10.5 nM.
For `Cc1nc(-c2cn3c(n2)-c2ccc(-c4cnn(C)c4C4CC(N(C)C(C)C)CCO4)cc2OCC3)n(C(C)C)n1` (centres unmarked) [Example 335, N-isopropyl-2-[4-[2-(2-isopropyl-5-methyl-1,2,4-triazol-3-yl)-5,6-dihydroimidazo[1,2-d][1,4]benzoxazepin-9-yl]-2-methyl-pyrazol-3-yl]-N-methyl-tetrahydropyran-4-amine], at p110 alpha, the “IC50 p110 alpha/IC50 p110 delta” value was 96.5. The 50% inhibitory concentration (IC50) on p110 delta turned out to be 2.27 nM.
Consider `Cc1nc(-c2cn3c(n2)-c2cc([C@H](C)N4CCN(CC(C)(C)O)CC4)c(F)cc2OCC3)n(C(C)C)n1` [Example 336, (S)-1-(4-(1-(9-fluoro-2-(1-isopropyl-3-methyl-1H-1,2,4-triazol-5-yl)-5,6-dihydrobenzo[f]imidazo[1,2-d][1,4]oxazepin-10-yl)ethyl)piperazin-1-yl)-2-methylpropan-2-ol], for which, on p110 alpha, the “IC50 p110 alpha/IC50 p110 delta” value worked out at 27. The same compound showed an IC50 at p110 delta of 26.8 nM.
The like results for `Cc1nc(-c2cn3c(n2)-c2ccc(N4CCCC45CCCN(C(C)C)C5)cc2OCC3)n(C(C)C)n1` (centres unmarked) [Example 337, 9-(7-isopropyl-1,7-diazaspiro[4.5]decan-1-yl)-2-(2-isopropyl-5-methyl-1,2,4-triazol-3-yl)-5,6-dihydroimidazo[1,2-d][1,4]benzoxazepine] were, in that order, 47.9 and 1.52 nM.
As for `Cc1nc(-c2cn3c(n2)-c2cc([C@@H](C)N4CCN(C(C)C)CC4)c(F)cc2OCC3)n(C(C)C)n1` [Example 338, (R)-9-fluoro-2-(1-isopropyl-3-methyl-1H-1,2,4-triazol-5-yl)-10-(1-(4-isopropylpiperazin-1-yl)ethyl)-5,6-dihydrobenzo[f]imidazo[1,2-d][1,4]oxazepine], at p110 alpha, the “IC50 p110 alpha/IC50 p110 delta” value worked out at 114. This compound had a half-maximal inhibitory concentration (IC50) at p110 delta of 1.48 nM.
In the case of `CCN(CC)C1CCOC(c2c(-c3ccc4c(c3)OCCn3cc(-c5nc(C)nn5C(C)C)nc3-4)cnn2C)C1` (centres unmarked) [Example 339, N,N-diethyl-2-[4-[2-(2-isopropyl-5-methyl-1,2,4-triazol-3-yl)-5,6-dihydroimidazo[1,2-d][1,4]benzoxazepin-9-yl]-2-methyl-pyrazol-3-yl]tetrahydropyran-4-amine], the “IC50 p110 alpha/IC50 p110 delta” value at p110 alpha is given as 61.5. The compound further gave a 50% inhibitory concentration (IC50) at p110 delta of 1.07 nM.
The like results for `Cc1nc(-c2cn3c(n2)-c2cc([C@H](C)N4CCN(C(C)C)CC4)c(F)cc2OCC3)n(C(C)C)n1` [Example 340, (S)-9-fluoro-2-(1-isopropyl-3-methyl-1H-1,2,4-triazol-5-yl)-10-(1-(4-isopropylpiperazin-1-yl)ethyl)-5,6-dihydrobenzo[f]imidazo[1,2-d][1,4]oxazepine] were, in that order, 25.8 and 2.32 nM.
On to `CCN(CC)C1CCOC(c2c(-c3ccc4c(c3)OCCn3cc(-c5nc(C)nn5C(C)C)nc3-4)cnn2C)C1` (centres unmarked) [Example 341, N,N-diethyl-2-[4-[2-(2-isopropyl-5-methyl-1,2,4-triazol-3-yl)-5,6-dihydroimidazo[1,2-d][1,4]benzoxazepin-9-yl]-2-methyl-pyrazol-3-yl]tetrahydropyran-4-amine], for which the “IC50 p110 alpha/IC50 p110 delta” value at p110 alpha was determined as 71.1. At p110 delta, this compound gave an IC50 of 0.771 nM.
The corresponding values for `Cc1nc(-c2cn3c(n2)-c2ccc(N4CCC4[C@@H]4CCCN(C(C)C)C4)cc2OCC3)n(C(C)C)n1` (stereo partly drawn) [Example 342, 2-(1-isopropyl-3-methyl-1H-1,2,4-triazol-5-yl)-9-(2-((R)-1-isopropylpiperidin-3-yl)azetidin-1-yl)-5,6-dihydrobenzo[f]imidazo[1,2-d][1,4]oxazepine] are 21.3 and 0.16 nM.
The like results for `Cc1nc(-c2cn3c(n2)-c2ccc(-c4cnn(C)c4C4CC(N(C)C(C)C)CCO4)cc2OCC3)n(C(C)C)n1` (centres unmarked) [Example 343, N-isopropyl-2-[4-[2-(2-isopropyl-5-methyl-1,2,4-triazol-3-yl)-5,6-dihydroimidazo[1,2-d][1,4]benzoxazepin-9-yl]-2-methyl-pyrazol-3-yl]-N-methyl-tetrahydropyran-4-amine] were, in that order, 53 and 0.939 nM.
The corresponding values for `Cc1nc(-c2cn3c(n2)-c2ccc(-c4cnn(C)c4C4CC(N(C)C(C)C)CCO4)cc2OCC3)n(C(C)C)n1` (centres unmarked) [Example 344, N-isopropyl-2-[4-[2-(2-isopropyl-5-methyl-1,2,4-triazol-3-yl)-5,6-dihydroimidazo[1,2-d][1,4]benzoxazepin-9-yl]-2-methyl-pyrazol-3-yl]-N-methyl-tetrahydropyran-4-amine] are 66 and 1.23 nM.
As to `Cc1nc(-c2cn3c(n2)-c2cc(C(C)N4CCN(C5COC5)CC4)c(C)cc2OCC3)n(C(C)C)n1` (centres unmarked) [Example 345, 2-(2-isopropyl-5-methyl-1,2,4-triazol-3-yl)-9-methyl-10-[1-[4-(oxetan-3-yl)piperazin-1-yl]ethyl]-5,6-dihydroimidazo[1,2-d][1,4]benzoxazepine], at p110 alpha, the “IC50 p110 alpha/IC50 p110 delta” value is 14.3. The IC50 on p110 delta stood at 8.82 nM.
The corresponding values for `Cc1nc(-c2cn3c(n2)-c2ccc(N4CCCC4CN(C)C)cc2OCC3)n(C(C)C)n1` (centres unmarked) [Example 346, 1-[1-[2-(2-isopropyl-5-methyl-1,2,4-triazol-3-yl)-5,6-dihydroimidazo[1,2-d][1,4]benzoxazepin-9-yl]pyrrolidin-2-yl]-N,N-dimethyl-methanamine] are 23 and 0.288 nM.
The like results for `Cc1nc(-c2cn3c(n2)-c2cc([C@@H](C)N4CCN(C(C)(C)CO)CC4)c(F)cc2OCC3)n(C(C)C)n1` [Example 347, (R)-2-(4-(1-(9-fluoro-2-(1-isopropyl-3-methyl-1H-1,2,4-triazol-5-yl)-5,6-dihydrobenzo[f]imidazo[1,2-d][1,4]oxazepin-10-yl)ethyl)piperazin-1-yl)-2-methylpropan-1-ol] were, in that order, 47.5 and 5.53 nM.
The like results for `Cc1nc(-c2cn3c(n2)-c2ccc(N4CCCC4CN(C)C)cc2OCC3)n(C(C)C)n1` (centres unmarked) [Example 348, 1-[1-[2-(2-isopropyl-5-methyl-1,2,4-triazol-3-yl)-5,6-dihydroimidazo[1,2-d][1,4]benzoxazepin-9-yl]pyrrolidin-2-yl]-N,N-dimethyl-methanamine] were, in that order, 31.4 and 0.445 nM.
With `Cc1nc(-c2cn3c(n2)-c2cc(C(C)N4CCN(CC(C)(C)O)CC4)c(C)cc2OCC3)n(C(C)C)n1` (centres unmarked) [Example 349, 1-[4-[1-[2-(2-isopropyl-5-methyl-1,2,4-triazol-3-yl)-9-methyl-5,6-dihydroimidazo[1,2-d][1,4]benzoxazepin-l0-yl]ethyl]piperazin-1-yl]-2-methyl-propan-2-ol], the “IC50 p110 alpha/IC50 p110 delta” value on p110 alpha is reported as 18.1. Also, the IC50 at p110 delta came out at 4.21 nM.
The corresponding values for `Cc1nc(-c2cn3c(n2)-c2cc([C@H](C)N4CCN(C(C)(C)CO)CC4)c(F)cc2OCC3)n(C(C)C)n1` [Example 350, (S)-2-(4-(1-(9-fluoro-2-(1-isopropyl-3-methyl-1H-1,2,4-triazol-5-yl)-5,6-dihydrobenzo[f]imidazo[1,2-d][1,4]oxazepin-10-yl)ethyl)piperazin-1-yl)-2-methylpropan-1-ol] are 212 and 1.99 nM.
The corresponding values for `Cc1nc(-c2cn3c(n2)-c2cc(-c4ccnn4[C@@H]4CCCN(C5COC5)C4)c(F)cc2OCC3)n(C(C)C)n1` [Example 351, (R)-9-fluoro-2-(1-isopropyl-3-methyl-1H-1,2,4-triazol-5-yl)-10-(1-(1-(oxetan-3-yl)piperidin-3-yl)-1H-pyrazol-5-yl)-5,6-dihydrobenzo[f]imidazo[1,2-d][1,4]oxazepine] are 16.6 and 2.21 nM.

Values taken from patent publication US9090628B2, “Benzoxazepin compounds selective for PI3K P110 delta and methods of use” (GENENTECH, INC., priority 2011, dated 2015).
